Literature values as cited in paper PMC4990482 (Nature chemical biology, 2016).

Test system: EZH2

Compound: CC[C@H](C)n1cc(C)c2c(C(=O)NCc3c(C)cc(C)[nH]c3=O)cc(-c3ccc(N4CCNCC4)nc3)cc21 [GSK126]
- selectivity for EZH2 versus EZH1: > 150 fold
